# Test results: patent US11419856B2, “Pharmaceutical combinations for use in the treatment of neoplastic diseases” (Basilea Pharmaceutica International AG, priority 2017, dated 2022)
# How the values were obtained:
# [1] = Tolerability in the MDA-MB-231 xenograft model (body weight, mortalities); details: for Final body-weight / Body-weight change: mean ± SD
# Procedure: (§1) The mice were housed on irradiated Enrich-o'Cobs™ Laboratory Animal Bedding in static micro-isolators on a 12-hour light cycle at 20-22° C. (68-72° F.) and 40-60% humidity. Charles River Discovery Services North Carolina (CR Discovery Services) specifically complies with the recommendations of the Guide for Care and Use of Laboratory Animals with respect to restraint, husbandry, surgical procedures, feed and fluid regulation, and veterinary care. The animal care and use program at CR Discovery Services is accredited by the Association for Assessment and Accreditation of Laboratory Animal Care International (AAALAC), which assures compliance with accepted standards for the care and use of laboratory animals. These considerations were taken into account in the way that the dosage regimes were designed and implemented.
# (§2) All doses were adjusted to 10 mL/kg. The control groups received oral doses of vehicle (pH 5 buffered 0.9% NaCl solution). Eribulin was administered i.v. and BAL101553 orally. When eribulin and BAL0101553 were dosed in combination, Eribulin was administered to all groups first followed by BAL0101553 dosing within 30 minutes of the first regimen.
# Body weights were recorded daily for days 1-5 and then twice weekly until the end of the study and tumor volumes were recorded twice weekly until the end of the experiment. These parameters were analyzed and graphically represented by using GraphPad-Prism™ 5 for Windows according to standard procedure. […] Skin and subcutaneous tissue including the tumor cell inoculation site from the flank region were resected, preserved in formalin and embedded in paraffin. Sections of approximately 5 μm were mounted on glass slides and stained with hematoxylin/eosin and were evaluated by a trained pathologist, to identify residual tumor cells at the site of injection, and were being reported as positive for the existence of residual tumor cells or as negative for a complete lack of any evidence of residual tumor cells.
# [2] = tested on: MDA-MB-231 xenograft (human triple negative breast cancer); experiment: Antitumor efficacy and induction of cures in the MDA-MB-231 xenograft model (Examples 1A, 1B); type: in vivo, mouse
# Procedure: as §1, with “Female athymic nude mice (Crl:NU(NCr)-Foxnlnu, Charles River) were used when ten weeks old with a body weight (BW) range of 19.7-27.1 g on Day 1 of the study. The animals were fed ad libitum water (reverse osmosis, 1 ppm Cl) and NIH 31 Modified and Irradiated Lab Diet® consisting of 18.0% crude protein, 5.0% crude fat, and 5.0% crude fiber. The mice” for “The mice”
# The human MDA-MB-231 breast adenocarcinoma cells were grown to mid-log phase in RPMI-1640 medium containing 10% fetal bovine serum, 2 mM glutamine, 100 units/mL sodium penicillin G, 25 μg/mL gentamicin, and 100 μg/mL streptomycin sulfate. The tumor cells were cultured in tissue culture flasks in a humidified incubator at 37° C./5% CO2 and 95% air, harvested during exponential growth and resuspended in cold Phosphate-buffered saline (PBS). Each test animal received a subcutaneous (s.c.) injection of 5×10^6 MDA-MB-231 cells (0.1 mL cell suspension) into the right flank, and tumor growth was monitored as the average tumor size approached the target range of 100-150 mm^3. Tumors were measured (mm) in two dimensions using calipers, and volume was calculated using the formula: Tumor Volume (TV) (mm^3)=(width^2×length)/2. Eighteen days after tumor cell implantation, on Day 1 of the study, mice with individual tumor volumes ranging from 75 to 172 mm^3 were randomized into groups of 8-10 animals, with group mean tumor volumes of 114-124 mm^3.
# BAL0101553 was dissolved in 0.9% NaCl in water buffered to pH 5 with 1% sodium acetate to yield 2, 2.5 and 3 mg/mL dosing solutions, providing 20, 25 and 30 mg/kg dosages, respectively, in 10 mL/kg dosing volumes. Eribulin (purchased from Eisai Co., Lot. No. 6217, 6288, 6289 and 6309) at 0.5 mg/mL concentration was diluted in saline to yield a 0.01, 0.025 and 0.05 mg/mL dosing solutions, providing 0.1, 0.25 and 0.5 mg/kg dosages, respectively, in a dosing volume of 10 mL/kg.
# as §2, with “Groups of mice (n=8-10) bearing MDA-MB-231 tumors were dosed as outlined in the Tables 1 and 3. All” for “All”
# Body weights were recorded daily for days 1-5 and then twice weekly until the end of the study and tumor volumes were recorded twice weekly until the end of the experiment. These parameters were analyzed and graphically represented by using GraphPad-Prism™ 5 for Windows according to standard procedure. […] Tumor free animals at the end of the study time were assessed for residual MDA-MB-231 tumor cells by pathological methods. Skin and subcutaneous tissue including the tumor cell inoculation site from the flank region were resected, preserved in formalin and embedded in paraffin.
# [3] = E1A, Day 25, p.o. 20 mg/kg qd x5/qw D1-D9, 20 mg/kg qd D12-D34
# [4] = E1A, Day 25, p.o. 30 mg/kg qd x5/qw D1-D9, 25 mg/kg qd D12-D34
# [5] = E1B, Day 26, p.o. 20 mg/kg qd D1-D21, 20 mg/kg qd D25-D43
# [6] = Day 26, BAL101553 p.o. 20 mg/kg qd D1-D21, 20 mg/kg qd D25-D43
# [7] = Day 100 (endpoint), BAL101553 p.o. 20 mg/kg qd D1-D21, 20 mg/kg qd D25-D43
# [8] = E1A, Day 85 (endpoint), p.o. 20 mg/kg qd x5/qw D1-D9, 20 mg/kg qd D12-D34
# [9] = E1A, Day 85 (endpoint), p.o. 30 mg/kg qd x5/qw D1-D9, 25 mg/kg qd D12-D34
smiles,measurement,setting,value
"N#CCCNc1nonc1-c1nc2ccccc2n1CC(=O)c1ccc(NC(=O)[C@@H](N)CCCCN)cc1 [BAL101553, (S)-2,6-Diamino-hexanoic acid [4-(2-{2-[4-(2-cyano-ethylamino)-furazan-3-yl]-benzoimidazol-1-yl}-acetyl)-phenyl]-amide]",Final body-weight,[1]; [3],26.6 ± 1.6 g
same,Final body-weight,[1]; [4],25 ± 1.9 g
same,"T/C (TC-BW, body weight)",[1]; [3],1.02
same,"T/C (TC-BW, body weight)",[1]; [4],1.00
same,Body-weight change,"[1]; E1A, day-0 until day-25, p.o. 20 mg/kg qd x5/qw D1-D9, 20 mg/kg qd D12-D34",2.8 ± 0.7 g
same,Body-weight change,"[1]; E1A, day-0 until day-25, p.o. 30 mg/kg qd x5/qw D1-D9, 25 mg/kg qd D12-D34",2.0 ± 0.8 g
same,Mortalities,"[1]; E1A, p.o. 20 mg/kg qd x5/qw D1-D9, 20 mg/kg qd D12-D34",0/8
same,Final body-weight,[1]; [5],25.9 ± 1.4 g
same,"T/C (TC-BW, body weight)",[1]; [5],1.04
same,Body-weight change,"[1]; E1B, day-0 until day-26, p.o. 20 mg/kg qd D1-D21, 20 mg/kg qd D25-D43",2.6 ± 0.7 g
same,Mortalities,"[1]; E1B, p.o. 20 mg/kg qd D1-D21, 20 mg/kg qd D25-D43",0/10
same,# of regressed tumors (total),[2]; [6],1 (10)
same,T/C,[2]; [6],0.12
same,# of confirmed cures (total),[2]; [7],1 (10)
same,# of tumors with TV ≤ 4 mm^3 (total),[2]; [7],0 (10)
same,% cures,[2]; [7],10%
same,# of regressed tumors (total),[2]; [3],0 (8)
same,T/C,[2]; [3],0.21
same,# of regressed tumors (total),[2]; [4],4 (8)
same,T/C,[2]; [4],0.07
same,# of confirmed cures (total),[2]; [8],0 (8)
same,# of tumors with TV ≤ 4 mm^3 (total),[2]; [8],0 (8)
same,% cures,[2]; [8],0%
same,# of confirmed cures (total),[2]; [9],0 (8)
same,# of tumors with TV ≤ 4 mm^3 (total),[2]; [9],0 (8)
same,% cures,[2]; [9],0%
